# Experimental data: patent US20050221328A1, “Inhibitors of inflammatory gene activity and cholesterol biosynthesis” (Wyeth, priority 2002, published 2005)
# How the values were obtained:
# Fnk, JAB, LIX, and bcl-3 = assay: EE alteration of IL-1β induction of Fnk, JAB, LIX and bcl-3 in liver, spleen and lung; format: in vivo, mouse; conditions: EE pretreatment
# From the text: The requirement for ERα for EE activity in the liver is consistent with the nearly exclusive presence of ERα in the liver (as determined by realtime PCR, panel A). In contrast, the lung expresses relatively low levels of ERα and high levels of ERB. […] In contrast, EE pretreatment had no effect on IL-1β induction of Fnk, JAB, LIX, or bcl-3 in the lung.
# [1] = test system: Fnk, JAB, LIX, bcl-3 and SHP; assay: Liver expression of Fnk, JAB, LIX, bcl-3 and SHP by realtime PCR after estrogen receptor ligand pretreatment and IL-1β
# Description: Referring to FIG. 3a, to distinguish these two mechanisms, the IL-1β fold induction of Fnk, JAB, LIX, and bcl-3 and the IL-1β fold repression of SHP was quantified in animals pretreated with vehicle (black bars) or 100 ug/kg/day EE (grey bars). Liver RNA levels of each gene (mean +/−SEM) were determined by realtime PCR of RNA from each individual animal.
# Referring to FIGS. 4a, 4b, 4c, 4d and 4e, experiments were conducted to determine whether EE blocks IL-1β induction of gene expression by an estrogen receptor (ER) dependent mechanism. Estrogens can regulate gene expression by many mechanisms including ER independent pathways such as antioxidant mechanisms. […] Liver expression levels of Fnk, JAB, LIX, bcl-3 and SHP (mean +/−SEM) were determined by realtime PCR.
# Referring to FIGS. 5a, 5b, 5c, 5d, and 5e, experiments were conducted to determine whether ERα is required for EE regulation of gene expression in the liver. To determine whether ERα or ERβ mediated the EE effects on IL-1β gene expression in the liver, C57BL/6 wild type mice, C57BL/6 ERαKO mice, or 129 ERβKO mice were pretreated with vehicle (black bars) or […] EE (gray bars) for 5 days followed by a 1 hour treatment with IL-1β. Liver expression levels of Fnk, JAB, LIX, bcl-3, and SHP (mean +/−SEM) were quantified by realtime PCR, with expression in animals receiving vehicle+PBS defined as 1.0.
# mouse liver = conditions: GeneChip, 1 h after 20 ug/kg IL-1β ip, pretreated 5 days with vehicle or 100 ug/kg/day EE sc, vehicle+PBS=1.0;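 note: ovariectomized C57BL/6 mice, liver polyA RNA profiled, values are fold expression relative to vehicle plus PBS, averaged over two independent experiments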
# Description: Experiments were conducted to evaluate IL-1β regulation of gene expression in the mouse liver. Ovariectomized C57BL/6 mice were pretreated by subcutaneous administration of either corn oil/ethanol vehicle or 100 ug/kg/day ethynylestradiol (EE) for 5 days. On the fifth day, the mice received an intraperitoneal injection of either PBS or 20 ug/kg IL-1β in PBS. One hour later the livers were removed and polyA RNA was prepared. Global gene expression was determined by analysis using murine 11K GeneChips from Affymetrix. For each gene, the level of expression in animals receiving vehicle pretreatment plus PBS was defined as 1.0, with the expression levels in the mice receiving vehicle pretreatment±IL-1β or EE pretreatment±IL-1β defined relative to this. The results shown are the mean from two independent experiments.
# The fold regulation of each gene is plotted for animals receiving vehicle pretreatment x-axis) vs. animals receiving pretreatment with EE (y-axis). Genes with IL-1β induction unaffected by EE pretreatment would lie along the dotted diagonal.
# [2] = mouse liver, EE treated mice vs vehicle treated mice
smiles,measurement,setting,value
"C#C[C@]1(O)CC[C@H]2[C@@H]3CCc4cc(O)ccc4[C@H]3CC[C@@]21C [EE, ethynylestradiol]","IL-1β induction of Fnk, JAB, LIX, and bcl-3 in the liver","Fnk, JAB, LIX, and bcl-3; liver",significantly blocked
same,"IL-1β induction of Fnk, JAB, LIX, or bcl-3 in the lung","Fnk, JAB, LIX, and bcl-3; lung",no effect
same,IL-1β induction of Fnk and JAB in the spleen,"Fnk, JAB, LIX, and bcl-3; spleen",blocked
same,"EE inhibition of IL-1β regulation of Fnk, JAB, LIX, bcl-3, SHP in animals lacking ERβ vs wild type","[1]; 129 ERβKO mice vs C57BL/6 wild type, 10 ug/kg/day EE 5 days, IL-1β 1 hour",comparable
same,"effect on IL-1β regulation of Fnk, JAB, LIX, bcl-3, SHP in animals lacking ERα","[1]; C57BL/6 ERαKO mice, 10 ug/kg/day EE 5 days, IL-1β 1 hour",no effect
same,"effect on regulation of liver Fnk, JAB, LIX, bcl-3 and SHP expression vs IL-1β alone","[1]; mice, 100 ug/kg/day EE, 1 or 10 mg/kg/day E2, 30 mg/kg/day genistein, 5 mg/kg/day raloxifene, 10 mg/kg/day ICI182780, plus IL-1β",greatest effect
same,IL-1 repression of SHP expression,"[1]; mouse liver, realtime PCR, vehicle treated or 100 ug/kg/day EE treated animals",85%
same,IL-1 induction of bcl-3,"[1]; mouse liver, realtime PCR, vehicle treated or 100 ug/kg/day EE treated mice, IL-1 vs PBS",5.2 fold
same,"IL-1β fold induction of Fnk, JAB, and LIX","[1]; mouse liver, 100 ug/kg/day EE pretreated vs vehicle",reduced
same,IL-1β fold regulation for bcl-3 and SHP,"[1]; mouse liver, 100 ug/kg/day EE treated vs vehicle",the same
same,"inhibition of IL-1β induction of Fnk, JAB, LIX and bcl-3","[1]; mouse liver, 100 ug/kg/day EE, 30 mg/kg/day genistein, 5 mg/kg/day raloxifene",inhibited
same,basal expression of SHP,[1]; [2],increased
same,basal expression of bcl-3,[1]; [2],repressed
same,IL-1 Induction A20 (Tnfaip3),mouse liver,11.4 fold
same,"IL-1 Induction B94, TNF-α induced protein 2 (Tnfaip2)",mouse liver,17.7 fold
same,IL-1 Induction C/EBPδ (Cebpd),mouse liver,5.2 fold
same,IL-1 Induction CD14 (Cd14),mouse liver,6.1 fold
same,IL-1 Induction CD83 (Cd83),mouse liver,4.0 fold
same,IL-1 Induction E-selectin (Sele),mouse liver,5.2 fold
same,IL-1 Induction Ets transcription factor ELF3 (Elf3),mouse liver,6.7 fold
same,IL-1 Induction G0/G1 switch gene 2 (G0s2),mouse liver,0.05 fold
same,IL-1 Induction GTP binding protein IRG-47 (lfi47),mouse liver,3.2 fold
same,IL-1 Induction Gadd45 (Gadd45a),mouse liver,3.6 fold
same,IL-1 Induction Glvr-1 (Slc20a1),mouse liver,5.8 fold
same,IL-1 Induction H-2Ld (H-2L),mouse liver,4.1 fold
same,IL-1 Induction ICAM-1 (lcam1),mouse liver,38.4 fold
same,IL-1 Induction IL-1m (Il1m),mouse liver,18.9 fold
same,IL-1 Induction IL-15 receptor (Il15ra),mouse liver,2.7 fold
same,IL-1 Induction IxBa (Nfkbia),mouse liver,7.4 fold
same,"IL-1 Induction JAB, suppressor of cytokine signaling 1 (Cish1)",mouse liver,1.4 fold
same,IL-1 Induction JE/MCP-1 (Scya2),mouse liver,64.4 fold
same,IL-1 Induction LIX (Scyb5),mouse liver,2.9 fold
same,IL-1 Induction LPS inducible C—C chemokine receptor related (AF030185),mouse liver,5.6 fold
same,IL-1 Induction M-CSF (Csf1),mouse liver,23.9 fold
same,IL-1 Induction MARCKS-like macrophage protein (Mlp),mouse liver,5.1 fold
same,IL-1 Induction MIG (Scyb9),mouse liver,5.4 fold
same,IL-1 Induction MIP2 (Scyb2),mouse liver,91.1 fold
same,IL-1 Induction MIP-1 gamma (Scya9),mouse liver,1.9 fold
same,IL-1 Induction MyD118 (GADD45b),mouse liver,12.9 fold
same,IL-1 Induction NF-E2 related factor 2 (NRF2) (Nfe212),mouse liver,7.2 fold
same,IL-1 Induction NF-kappa-B p105 (Nfkb1),mouse liver,6.2 fold
same,IL-1 Induction NFkB p100 (Nfkb2),mouse liver,2.8 fold
same,IL-1 Induction PAI-1 (Serpine1),mouse liver,40.8 fold
same,IL-1 Induction PDGF-induced KC (Gro1),mouse liver,6.1 fold
same,IL-1 Induction PIM-1 protein kinase (Pim1),mouse liver,2.1 fold
same,IL-1 Induction SHP (NrGb2),mouse liver,0.53 fold
same,IL-1 Induction T-cell death associated gene (Tdag),mouse liver,2.2 fold
same,IL-1 Induction T-cell specific GTPase (Tgtp),mouse liver,2.8 fold
same,IL-1 Induction TGFB inducible early growth response (Tieg),mouse liver,0.38 fold
same,IL-1 Induction Ubiquitin-conjugating E2 enzyme variant 2 (Ube2v2),mouse liver,5.3 fold
same,IL-1 Induction VCAM-1 (Vcam1),mouse liver,12.5 fold
same,"IL-1 Induction adrenergic receptor, beta 2 (Adrb2)",mouse liver,3.1 fold
same,IL-1 Induction adrenomedullin (Adm),mouse liver,10.0 fold
same,IL-1 Induction apoptosis inhibitor 1 (Birc2),mouse liver,8.9 fold
same,IL-1 Induction apoptosis inhibitor 2 (Birc3),mouse liver,4.3 fold
same,IL-1 Induction bcl-3 (Bcl3),mouse liver,6.2 fold
same,IL-1 Induction c-JUN (Jun),mouse liver,5.6 fold
same,IL-1 Induction calcium binding protein A6 (S100a6),mouse liver,2.6 fold
same,IL-1 Induction calgranulin A (S100A8),mouse liver,10.7 fold
same,IL-1 Induction calgranulin B (S100a9),mouse liver,25.7 fold
same,IL-1 Induction cytokine-inducible kinase Fnk (Cnk),mouse liver,0.3 fold
same,IL-1 Induction gly96 (ler3),mouse liver,43.8 fold
same,IL-1 Induction growth factor receptor bound protein 7 (Grb7),mouse liver,0.13 fold
same,IL-1 Induction guanylate nucleotide binding protein 2 (Gbp2),mouse liver,3.6 fold
same,IL-1 Induction helix-loop-helix factor HES-1 (Hes1),mouse liver,0.25 fold
